Results published in PubChem BioAssay AID720663 (NMMLSC, 2013).
Activity calls are given as the source filed them.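 The calls were made as follows: active = inhibition above 50% of lysosomal marker LAMP-1 reaching the cell surface; inactive = inhibition below 50%.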

Test system: TALL-104 cells, LAMP-1 externalization, flow cytometry
Assay: inhibitors of lytic granule exocytosis via LAMP-1, confirmation, TALL-104 cells, flow cytometry, CherryPick01 (AID 720663)
Settings: at 30 µM; active compounds read high

| SMILES | inhibition |
| --- | --- |
| CCOC(=O)c1c(CSc2ccccc2)n(C)c2cc(Br)c(O)c(CN(C)C)c12 | 25.5% (inactive) |
| CC(=O)Nc1ccc2c(=O)n(-c3ccccc3)sc2c1 | 39.8% (inactive) |
| CC(=O)Nc1ccc2sn(-c3ccccc3)c(=O)c2c1 | 26.4% (inactive) |
| CCOc1ccc2[nH]c3c(N4CCc5ccccc5C4)ncnc3c2c1 | 5.2% (inactive) |
| COc1ccc(-c2cc(NC=O)c3ncc(-c4cccc(OC)c4)n3c2)cc1 | 82.8% |
| COc1ccc(-n2sc3ccccc3c2=O)cc1 | 60.1% |
| COc1cc(-c2coc3c(C(=O)NCc4ccc(OC)c(OC)c4)cccc23)ccc1O | 29.4% (inactive) |
| O=CNc1cc(-c2ccsc2)cn2c(-c3ccccc3)cnc12 | 52.6% |
| CCCNC(=O)Cn1sc2nc(C)cc(C)c2c1=O | 41.7% (inactive) |
| CN(C)CCCNC(=S)NCC(c1ccc(Cl)cc1Cl)c1c[nH]c2ccccc12 (stereo not given) | 24% (inactive) |
| CCOC(=O)c1nnc(-c2ccccc2)nc1Sc1ccccc1Cl | 4.8% (inactive) |
| CCCCC[C@@H](C)N1C[C@H](COCc2ccccc2)Oc2cc(N3CC[C@@H](N(C)C)C3)ccc2S1(=O)=O | 93.7% |
| Cc1ccc(Nc2nc(NCc3ccco3)c3ccccc3n2)cc1 | 58.7% |
| c1ccc(CNc2nc(NCC3CC3)nc3cc(-c4ccccc4)sc23)cc1 | 97.8% |
| O=c1c2ccccc2sn1-c1ccccc1F | 44% (inactive) |
| Cn1sc(=O)c2cc(S(=O)(=O)NC3CC3)ccc21 | 73.2% |
| CCCCC[C@@H](C)N1C[C@@H](COCc2ccccc2)Oc2cc(N3CC[C@H](N(C)C)C3)ccc2S1(=O)=O | 95.1% |
| COc1ccc([N+](=O)[O-])cc1Nc1c2ccccc2nc2ccccc12 | 20.4% (inactive) |
| CN(C)CCNC(=O)c1ccc(-c2cn3c(-c4ccc(Oc5ccccc5)cc4)cnc3cn2)cc1 | 66.8% |
| COC(=O)c1c(NC(=O)c2nc3ccccc3s2)sc2c1CC(C)(C)NC2(C)C | 81.5% |
| CCC(=C(c1ccc(OC)cc1)c1ccc(OC)cc1)c1cn(CC(O)CN2CCN(C)CC2)c2ccccc12 (stereo not given) | 14.8% (inactive) |
| COc1cccc(NC(=O)Nc2nc(-c3ccc(OC)c(OC)c3)cs2)c1 | 99.6% |
| CC1(C(=O)OCC(=O)Nc2nc(-c3ccc(F)c(F)c3)cs2)CC1(Cl)Cl (stereo not given) | -10.8% (inactive) |
| CCOC(=O)c1cc(-c2csc(Nc3c(C)cc(C)cc3C)n2)on1 | 70.1% |
| O=C(Cn1sc2ccccc2c1=O)NC12CC3CC(CC(C3)C1)C2 | 50% (inactive) |

| SMILES | inhibition |
| --- | --- |
| O=S(=O)(c1ccccc1)c1nnn2c1nc(NC1CCN(Cc3ccccc3)CC1)c1cc(Cl)ccc12 | 98.7% |
| CCOc1ccccc1CNC(=O)C1CCN(c2nnc(C)c3c(C)n(-c4ccc(C)cc4)nc23)CC1 | 99.6% |
| Cc1cc(C)c2nc(C)cc(N/N=C/c3ccc(O)cc3)c2c1 | 100% |
| Cc1ccc(S(=O)(=O)n2ccc3c(OCCOCCNCc4ccc(F)cc4)cccc32)cc1 | 85% |
| COc1ccc(N2C(=O)CC(Sc3nnc(-c4ccccc4)o3)C2=O)cc1 (stereo not given) | 92.9% |
| CCCS(=O)(=O)Nc1ccc(Nc2c3ccccc3nc3ccccc23)c(OC)c1 | 99.7% |
| COc1ccccc1CNc1nc(NCc2ccc(C(C)C)cc2)c2sccc2n1 | 78.5% |
| COc1cccc(-c2cnc3c(NC(C)=O)cc(-c4ccccc4OC)cn23)c1 | 56.1% |
| COc1cccc(-c2cnc3c(NC(C)=O)cc(-c4ccsc4)cn23)c1 | 53.2% |
| O=C1C=CC(=O)N1N(c1ccccc1)c1ccccc1 | 45.4% (inactive) |
| Cc1ccc(-n2nnc3c(=O)oc4ccccc4c32)cc1 | 98.8% |
| N#Cc1c(Nc2ccccc2Cl)s[nH]c1=O | 95.1% |
| CCc1ccc(/C=C2/Sc3ccccc3N(CC(=O)NCCCN3CCOCC3)C2=O)cc1 | 36.6% (inactive) |
| COc1cccc(-c2cnc3c(NC=O)cc(-c4ccccc4)cn23)c1 | 38.8% (inactive) |
| CC1=C(C)CS(=O)N(S(=O)(=O)c2ccc(Cl)cc2)C1 (stereo not given) | 99.5% |
| COC(=O)c1c(NC(=O)c2ccc(C(=O)c3ccccc3)cc2)sc2c1CC(C)(C)NC2(C)C | 39.6% (inactive) |
| O=C(OCc1ccccc1)N(CCCCN(CCCNCc1ccccc1)C(=O)OCc1ccccc1)CCCNCc1ccccc1 | 99.5% |
| CN1CCN(c2cc(-c3ccccc3)nc3cc(-c4ccc(F)cc4)nn23)CC1 | 99.7% |
| COc1ccc(-c2cc(NC=O)c3ncc(-c4ccccc4)n3c2)cc1OC | 69.9% |
| CCOC(=O)c1c(NC(=O)COc2ccccc2OCC)sc2c1CC(C)(C)NC2(C)C | 94.7% |
| CCOc1cc(CNCCc2ccc(S(N)(=O)=O)cc2)ccc1OCc1ccc(Cl)cc1 | 99.8% |
| Fc1ccc(/C=C\c2nccc3c2[nH]c2ccccc23)cc1 | 98.7% |
| CC(C)CNC(=O)c1c(N)n(Cc2ccc3c(c2)OCO3)c2nc3ccccc3nc12 | 21% (inactive) |
| CCCCCCSc1cccc(-c2nc3ccccn3c2NCc2ccccc2)c1 | -0.5% (inactive) |
| CC(C)(c1ccccc1)c1ccc(OCC(O)CNC2CCN(Cc3ccccc3)CC2)cc1 (stereo not given) | 97.6% |

| SMILES | inhibition |
| --- | --- |
| CN1CCN(CCCNC(=O)c2ccc(/C=C3\Sc4ccccc4N(Cc4ccc(F)cc4)C3=O)cc2)CC1 | 4.5% (inactive) |
| Nc1c(C(=O)NCc2ccc(F)cc2)c2nc3ccccc3nc2n1CCCN1CCOCC1 | 58.3% |
| O=C(Nc1ccc(F)cc1)c1nc(S(=O)(=O)Cc2ccccc2)ncc1Cl | 98.8% |
| Cn1cncc1C#Cc1c(-c2ccc(S(C)(=O)=O)cc2)sc2ccccc12 | 17% (inactive) |
| COC(=O)[C@]12CCCCC=C1N(Cc1cccc3ccccc13)C(=O)[C@H](CC(=O)NCc1ccc(OC)c(OC)c1)C2 | 15.9% (inactive) |
| CCCCn1c(=N)n(CC(=O)c2ccc(Br)s2)c2ccccc21 | 100% |
| COc1ccccc1CNc1nc(NCc2ccc3occc3c2)c2sccc2n1 | 37.5% (inactive) |
| O=c1c2ccccc2sn1-c1ccccc1 | 79.9% |
| Cc1cc(N2CCN(c3nc(-c4ccc([N+](=O)[O-])cc4)cs3)CC2)c2ccccc2n1 | 99.2% |
| OC(CNCC(c1ccc(Cl)cc1Cl)c1c[nH]c2ccccc12)c1ccccc1 (stereo not given) | 35.2% (inactive) |
| CCN(CC)CCCNc1ccc(-c2nnc(-c3ccc(OCC(C)C)cc3)o2)cn1 | 87.3% |
| O=C1CC(Sc2nnnn2-c2ccccc2)C(=O)N1c1cccc(Cl)c1 (stereo not given) | 89.1% |
| O=C(Cn1sc2ccccc2c1=O)Nc1ccc(F)cc1 | 51.7% |
| CC1COCC(C)N1C1=C(Cl)C(=O)c2ccccc2C1=O (stereo not given) | 99.7% |
| CC1=NOC(=O)/C1=C/c1ccc(-c2ccc(Cl)cc2)o1 | 84.6% |
| CN(c1ccccc1)S(=O)(=O)c1cccc(C(=O)NCCc2c[nH]c3ccccc23)c1 | 13.7% (inactive) |
| O=c1c2ccc(F)cc2sn1-c1ccccc1 | 77.6% |
| CCc1ccc2nc(N(CCCN(C)C)C(=O)c3ccc(S(=O)(=O)N4CCc5ccccc5C4)cc3)sc2c1 | 97.7% |
| O=C(CN1C(=O)/C(=C\c2cccc(Br)c2)Oc2ccccc21)NCCCN1CCOCC1 | 77% |
| N#Cc1ccc(NC(=O)Nc2ccc(Oc3ccc(NC(=O)Nc4ccc(C#N)cc4)cc3)cc2)cc1 | 40.4% (inactive) |
| CCCCC[C@@H](C)N1C[C@@H](COCc2ccccc2)Oc2cc(N3CC[C@@H](N(C)C)C3)ccc2S1(=O)=O | 95.3% |
| CCc1nc2ccc(C(=O)NC3CCN(Cc4ccccc4)CC3)cn2c1N(C)Cc1cc2ccccc2s1 | 22.5% (inactive) |
| O=C1Nc2ccc(Br)cc2/C1=C/C(=O)c1ccccc1 | 39.4% (inactive) |
| CCOc1ccc2nc(N(CCCN(C)C)C(=O)c3ccc(S(=O)(=O)N4CCc5ccccc5C4)cc3)sc2c1 | 100% |
| CCOc1ccc2nc(C)cc(Nc3cccc([N+](=O)[O-])c3)c2c1 | 100% |
